{"source": "patent US20240197695A1", "about": "“COMPOUND FOR PREVENTION OR TREATMENT OF KIDNEY DISEASE” (ONCOCROSS CO.,LTD, priority 2021, published 2024)", "assay_type_in_all_cases": "in vivo, mice (C57BL/6)", "key": {"[1]": {"test": "Body weights of mice in diabetic nephrosis model", "conditions": "50 mg/kg/day oral", "experimental": "(§1) STZ (Sigma-aldrich, S0130, 40 mg/kg b.w., in 0.1 M citrate buffer pH 4.5) was intraperitoneally administered to 9-week-old male mice (C57BL/6) once/1 day for 5 days to perform a first disease induction. After 7 weeks of the first induction, a second induction was performed using the same method as the first induction. For 5 days of an STZ administration period for the first induction, 10% sucrose was administered as drinking water. In addition, after 14 days of the second administration, blood glucose levels were confirmed to confirm the induction rate, and the induced animals were separated into groups. Experimental substances (R)-4-{(R)-1-[7-(3,4,5-trimethoxy-phenyl)-[1,6] naphthyridin-5-yloxy]-ethyl}pyrrolidin-2-one (BI-1002494) and cromolyn (OC-101) were administered orally into the stomach at 10 mL/kg using an administration syringe (sonde) before 16:00 daily for 12 weeks at a frequency of 7 days/week at doses shown in Table 1 below, and dexamethasone was orally administered as a positive control substance."}, "[2]": {"test": "Feed intake of mice in diabetic nephrosis model", "design": "Feed intake, Mean: unit not given here", "conditions": "50 mg/kg/day oral", "experimental": "as §1"}, "[3]": {"test": "Drinking water intake of mice in diabetic nephrosis model", "design": "unit not given here", "conditions": "50 mg/kg/day oral", "experimental": "as §1"}, "[4]": {"system": "diabetic nephrosis animal models", "test": "Changes in blood glucose levels (tail vein, blood glucose level meter)", "conditions": "50 mg/kg/day oral", "experimental": "as §1\nBefore disease induction, excluding week 9 of administration of experimental substances to mice in each group of Example 1 above, after 2 weeks after the first induction (based on a first administration date), and after 6 weeks and 2 weeks of the second induction (based on the first administration date), blood was collected from the tail vein and blood glucose levels were measured using a blood glucose level meter (Accu-Check, Roche), and fasting was performed for 4 hours from 9:30 a.m. to 1:30."}, "[5]": {"system": "diabetic nephrosis animal models", "experimental": "as §1\n(§2) After the observation period for mice of each group in Example 1 was terminated, all surviving animals were fasted in the same manner as when measuring blood glucose levels, and then anesthetized by inhaling isoflurane, and blood was collected from the abdominal vena cava through laparotomy. After the blood collection was completed, the veins and arteries were cut under anesthesia and exsanguinated. The collected blood was left at room temperature for 30 minutes or more and then centrifuged at 3,000 rpm for 20 minutes. Thereafter, glucose, Blood urea nitrogen (BUN), and creatinine were analyzed using an automated blood biochemistry analyzer (Hitachi 3100, Hitachi Co. Ltd., Japan). Indoxyl sulfate (a substance that was mainly produced in the intestines to cause renal injury, and a substance that caused end-stage renal failure by advancing renal function damage in patients with renal failure during hemodialysis) was analyzed using LC MS/MS. In addition, blood insulin was analyzed according to a method represented by a commercial Mouse Insulin ELISA KIT (#AKRIN-011T, Sibayagi Co. Ltd., Japan)."}, "[6]": {"system": "diabetic nephrosis animal models", "test": "Blood insulin (Mouse Insulin ELISA KIT) and HOMA-IR", "experimental": "as §1, §2"}, "[7]": {"system": "diabetic nephrosis animal models", "test": "Blood indoxyl sulfate by LC MS/MS", "conditions": "50 mg/kg/day oral, after observation period, fasted", "experimental": "as §1, §2"}, "[8]": {"system": "diabetic nephrosis animal models", "test": "Histopathological change (H&E) in liver, kidney, pancreas", "conditions": "G6/G7, 50 mg/kg oral; count in group of 10 animals", "experimental": "as §1\nAt the end of the observation period, the mice in each group of Example 1 were confirmed to be dead, and the liver, kidney, and pancreas were extracted and fixed with 10% neutral buffered formalin (NBF) in at least 20 times the tissue volume. The fixed tissue was sectioned to a thickness of approximately 4 mm and then produced into a paraffin block through general tissue processing and embedding processes. Thereafter, the tissue was sectioned to a thickness of 4 μm using a rotary microtome, and then H&E staining was performed, and histopathological changes were observed."}, "[9]": {"conditions": "50 mg/kg/day oral, after observation period, fasted"}}, "note": "Marks after values point to notes of the source that are not given here."}
{"molecule": "O=C(O)c1cc(=O)c2c(OCC(O)COc3cccc4oc(C(=O)O)cc(=O)c34)cccc2o1", "note": "[OC-101, cromolyn, reference compound]", "values": [{"measurement": "Body weight, Mean", "setting": "[1]; week 0", "value": 23.9, "unit": "g"}, {"measurement": "Body weight, Mean", "setting": "[1]; week 1", "value": 23.4, "unit": "g"}, {"measurement": "Body weight, Mean", "setting": "[1]; week 2", "value": 23.5, "unit": "g"}, {"measurement": "Body weight, Mean", "setting": "[1]; week 3", "value": 23.3, "unit": "g"}, {"measurement": "Body weight, Mean", "setting": "[1]; week 4", "value": 23.5, "unit": "g"}, {"measurement": "Body weight, Mean", "setting": "[1]; week 5", "value": 23.4, "unit": "g"}, {"measurement": "Body weight, Mean", "setting": "[1]; week 6", "value": 23.5, "unit": "g"}, {"measurement": "Body weight, Mean", "setting": "[1]; week 7", "value": 23.4, "unit": "g"}, {"measurement": "Body weight, Mean", "setting": "[1]; week 8", "value": 23.2, "unit": "g"}, {"measurement": "Body weight, Mean", "setting": "[1]; week 10", "value": 23, "unit": "g"}, {"measurement": "Feed intake, Mean", "setting": "[2]; week 0", "value": 6.23}, {"measurement": "Feed intake, Mean", "setting": "[2]; week 1", "value": 5.98}, {"measurement": "Feed intake, Mean", "setting": "[2]; week 2", "value": 6.35}, {"measurement": "Feed intake, Mean", "setting": "[2]; week 3", "value": 5.47}, {"measurement": "Feed intake, Mean", "setting": "[2]; week 4", "value": 4.28}, {"measurement": "Feed intake, Mean", "setting": "[2]; week 5", "value": 4.51}, {"measurement": "Feed intake, Mean", "setting": "[2]; week 6", "value": 4.29}, {"measurement": "Feed intake, Mean", "setting": "[2]; week 7", "value": 4.41}, {"measurement": "Feed intake, Mean", "setting": "[2]; week 8", "value": 4.37}, {"measurement": "Feed intake, Mean", "setting": "[2]; week 9", "value": 4.51}, {"measurement": "Feed intake, Mean", "setting": "[2]; week 10", "value": 4.28}, {"measurement": "Drinking water intake, Mean", "setting": "[3]; week 0", "value": 6.78}, {"measurement": "Drinking water intake, Mean", "setting": "[3]; week 1", "value": 8.11}, {"measurement": "Drinking water intake, Mean", "setting": "[3]; week 2", "value": 7.68}, {"measurement": "Drinking water intake, Mean", "setting": "[3]; week 3", "value": 6.99}, {"measurement": "Drinking water intake, Mean", "setting": "[3]; week 4", "value": 7.23}, {"measurement": "Drinking water intake, Mean", "setting": "[3]; week 5", "value": 6.78}, {"measurement": "Drinking water intake, Mean", "setting": "[3]; week 6", "value": 7.80}, {"measurement": "Drinking water intake, Mean", "setting": "[3]; week 7", "value": 7.06}, {"measurement": "Drinking water intake, Mean", "setting": "[3]; week 8", "value": 7.17}, {"measurement": "Drinking water intake, Mean", "setting": "[3]; week 9", "value": 7.09}, {"measurement": "Drinking water intake, Mean", "setting": "[3]; week 10", "value": 6.76}, {"measurement": "Blood glucose level, Mean", "setting": "[4]; week 0, 4 h fasting, in mg/dL (unit assumed)", "value": 300.9}, {"measurement": "Blood glucose level, Mean", "setting": "[4]; week 2, 4 h fasting, in mg/dL (unit assumed)", "value": 336.6}, {"measurement": "Blood glucose level, Mean", "setting": "[4]; week 4, 4 h fasting", "value": "271.1^#"}, {"measurement": "Blood glucose level, Mean", "setting": "[4]; week 6, 4 h fasting", "value": "295.5^#"}, {"measurement": "Blood glucose level, Mean", "setting": "[4]; week 8, 4 h fasting", "value": "259.9^#"}, {"measurement": "Blood glucose level, Mean", "setting": "[4]; week 10, 4 h fasting", "value": "247.8^#"}, {"measurement": "GLU compared to disease control group", "setting": "[5]; 50 mg/kg administered group", "value": "decreased statistically significantly"}, {"measurement": "CRE, Mean", "setting": "[5]; [9]", "value": 0.1, "unit": "mg/dL"}, {"measurement": "GLU, Mean", "setting": "[5]; [9]", "value": "282.6^# mg/dL"}, {"measurement": "T-CHO, Mean", "setting": "[5]; [9]", "value": 139.3, "unit": "mg/dL"}, {"measurement": "HOMA-IR compared to disease control group", "setting": "[6]; 50 mg/kg administered group", "value": "decreased statistically significantly"}, {"measurement": "HOMA-IR, Mean", "setting": "[6]; [9]", "value": "8.8^#"}, {"measurement": "Insulin, Mean", "setting": "[6]; [9]", "value": 0.5, "unit": "ng/mL"}, {"measurement": "Indoxyl sulfate, Mean", "setting": "[7]", "value": 2.0, "unit": "µg/mL"}, {"measurement": "Kidney: Medullar apoptosis", "setting": "[8]", "value": 0}, {"measurement": "Kidney: Medullar mineralization", "setting": "[8]", "value": 1}, {"measurement": "Kidney: NHL", "setting": "[8]", "value": 8}, {"measurement": "Kidney: bowman's capsule hyperplasia", "setting": "[8]", "value": 1}, {"measurement": "Kidney: pappillary mineralization", "setting": "[8]", "value": 0}, {"measurement": "Liver: Apoptosis", "setting": "[8]", "value": 2}, {"measurement": "Liver: Cytoplasmic glycogen", "setting": "[8]", "value": 0}, {"measurement": "Liver: Eosinophlic focus of cellular alteration", "setting": "[8]", "value": 1}, {"measurement": "Liver: Mononuclear cell infiltrate", "setting": "[8]", "value": 3}, {"measurement": "Liver: NHL", "setting": "[8]", "value": 5}, {"measurement": "Pancrease: Apoptosis", "setting": "[8]", "value": 0}, {"measurement": "Pancrease: NHL", "setting": "[8]", "value": 6}, {"measurement": "Pancrease: islet degeneration", "setting": "[8]", "value": 2}, {"measurement": "Pancrease: islet hypertrophy", "setting": "[8]", "value": 2}, {"measurement": "Pancrease: islet, mononuclear cell infillitrate", "setting": "[8]", "value": 1}]}
